Results as given in patent US11879893B2, “Rapid detection test for SARS-CoV-2” (priority 2020, dated 2024).
Like-named read-outs stand apart in the source and are kept apart here. Marks after values point to notes of the source that are not given here. Square brackets hold non-standard residues; d marks the D form. Primed or numbered codes have the meaning given here. Peptide text beside a SMILES is read from it. * marks the point of attachment. Dabcyl′ = CN(C)c1ccc(/N=N/c2ccc(C(=O)*)cc2)cc1; Dabcyl = CN(C)c1ccc(N=Nc2ccc(C(=O)*)cc2)cc1; EDANS = O=S(=O)(O)c1cccc2c(NCCN*)cccc12; Sta = CC(C)C[C@H](N)[C@@H](O)CC(=O)O; Isovaleryl = CC(C)CC(=O)*

Key:
[1] = tested on: non-specific protease activity in saliva; test: Inhibitor test in saliva samples: non-specific protease activity; format: biochemical
Description: (§1) The purpose of adding protease inhibitors to the buffer is to reduce nonspecific saliva activity and increase signal to noise ratio. 29 inhibitors were tested using a competitive enzymatic activity assay of 3CL Protease in saliva samples.

[2] = tested on: Buccal sample non-specific protease activity; test: Inhibitor test in buccal samples: non-specific protease activity; format: biochemical
Description: Optimizing Inhibitor Cocktail to Maximize Buccal Sample Non-Specific Protease Activity Inhibition
(§2) 29 inhibitors were tested using a competitive enzymatic activity assay of 3CL protease in buccal samples.

3CL Protease [3] = biological target: T1, 3CL Protease (Severe acute respiratory syndrome coronavirus 2, UniProt P0DTC1); format: biochemical, SARS-CoV-2; details: saliva samples
T1 construct: 6xHIS-tag (N); TEV-protease cleavage site (ENLYFQG) (N); made in house
Description: as §1

3CL = biological target: T2, 3CL (Severe acute respiratory syndrome coronavirus 2, UniProt P0DTC1); format: biochemical, SARS-CoV-2
T2 construct: 6xHIS-tag (N); TEV-protease cleavage site (ENLYFQG) (N); made in house; host or cells: Rosetta BL21 E. coli, pET14b
Description: In order to find the final and optimal reaction conditions, several parameters were tested:
Reducing agent: DTT and TCEP were tested at various concentrations to see if enzyme activity was affected.

3CL Protease [4] = biological target: T1, 3CL Protease; format: biochemical, SARS-CoV-2
Description: as §2

SARS-CoV-2 3CL Pro = SARS-CoV-2 3CL Pro (Severe acute respiratory syndrome coronavirus 2, UniProt P0DTC1); details: for Enzymatic activity, Slope, SARS-CoV-2: enzyme 150 ng/reaction; for % Enz activity, SARS-CoV-2: Table 5: relative to the substrate's own protease = 100
Saliva = test: Substrate cleavage by saliva (nonspecific activity); format: biochemical
Description: For these enzymatic reactions 150 ng/well enzyme was used under final and optimized assay conditions, i.e. […] Experiment were tested with 3 different saliva samples; representative results are shown.

HCoV-229E 3CL protease = biological target: T3, HCoV-229E 3CL protease (Human coronavirus 229E, UniProt P0C6U2); test: Substrate cleavage by HCoV-229E 3CL protease; format: biochemical; details: for Enzymatic activity, Slope, HCoV-229E / cross reactivity SARS-CoV-2 versus HCoV-229E protease: enzyme 150 ng/reaction; for % Enz activity, HCoV-229E: Table 5: relative to the substrate's own protease = 100; for cross reactivity SARS-CoV-2 versus HCoV-229E protease: substrate 5 uM
T3 construct: 6xHIS-tag (N); TEV-protease cleavage site (ENLYFQG) (N); made in house; host or cells: Rosetta BL21 E. coli, pET14b
Description: (§3) Running condition: Substrate concentration-5 uM, enzyme concentration 150 ng/reaction.
(§4) Enzymatic activity (RFU/min) of SARS-CoV-2, HCoV-229E and HRV 3CL and 3C proteases using peptide (SEQ ID NO: 8) is summarized in Table 6. Substrate concentration-1 μM, enzyme concentration 150 ng/reaction.

HRV 3C protease = test: Substrate cleavage by HRV 3C protease; format: biochemical, Human Rhinovirus (HRV); details: for % Enz activity, HRV: Table 5: relative to the substrate's own protease = 100
Description: as §3, §4

[5] = Table 2: 150 ng/well enzyme, 5 μM substrate, Dabcyl/EDANS, final buffer
[6] = Table 2: 5 μM substrate, Dabcyl/EDANS, final buffer
[7] = Table 4: substrate 5 uM, enzyme 150 ng/reaction
[8] = Table 3: 1 uM substrate, 488/535 nm, gain 1400, buffer without BSA

Molecule: 2,6 PDA
- non-specific protease activity in saliva [1]: decreased
- ranking among 29 inhibitors tested [2]: four best inhibitors
- inhibition of 3CL specific activity (3CL Protease [3]): non significant inhibition

Molecule: O[C@@H](CS)[C@@H](O)CS [DTT]
- effect of reducing agent on enzyme activity (3CL; various concentrations, DTT 5 mM): most effective at preserving enzyme activity

Molecule: [Cl-].[Na+] [NaCl]
- effect of potential enzyme mediator on enzyme activity (3CL): No positive effect

Molecule: O=S(=O)(F)Cc1ccccc1 [PMSF]
- non-specific protease activity in saliva [1]: decreased
- non-specific protease activity [2]: decreased
- ranking among 29 inhibitors tested [2]: four best inhibitors
- inhibition of 3CL specific activity (3CL Protease [4]; buccal samples): non significant inhibition
- inhibition of 3CL specific activity (3CL Protease [3]): non significant inhibition

Molecule: OCC(O)CO [glycerol]
- effect of potential enzyme mediator on enzyme activity (3CL): No positive effect

Molecule: CC(C)CC(=O)N[C@H](C(=O)N[C@H](C(=O)N[C@@H](CC(C)C)[C@@H](O)CC(=O)N[C@@H](C)C(=O)N[C@@H](CC(C)C)[C@@H](O)CC(=O)O)C(C)C)C(C)C [pepstatin] (Isovaleryl-VV[Sta]A[Sta]-OH)
- non-specific protease activity [2]: decreased
- inhibition of 3CL specific activity (3CL Protease [4]): non significant inhibition

Molecule: AC-DEVD-CHO
- non-specific protease activity in saliva [1]: decreased
- inhibition of 3CL specific activity (3CL Protease [3]): non significant inhibition

Molecule: Aprotinin
- non-specific protease activity in saliva [1]: decreased
- non-specific protease activity [2]: decreased
- inhibition of 3CL specific activity (3CL Protease [4]; buccal samples): non significant inhibition
- inhibition of 3CL specific activity (3CL Protease [3]): non significant inhibition

Molecule: Dabcyl-AVLQSGF-{EDANS} [Substrate#3]
- Enzyme (SARS-CoV-2 3CL Pro; [5]): 354 +/− 18
- Saliva (Saliva; [6]): 47 +/− 5

Molecule: Dabcyl-AVLQSGFRK-EDANS ({Dabcyl′}-AVLQSGFRK-{EDANS}; SMILES CC(C)C[C@H](NC(=O)[C@@H](NC(=O)[C@H](C)NC(=O)c1ccc(/N=N/c2ccc(N(C)C)cc2)cc1)C(C)C)C(=O)N[C@@H](CCC(N)=O)C(=O)N[C@@H](CO)C(=O)NCC(=O)N[C@@H](Cc1ccccc1)C(=O)N[C@@H](CCCNC(=N)N)C(=O)N[C@@H](CCCCN)C(=O)NCCNc1cccc2c(S(=O)(=O)O)cccc12) [Substrate#4]
- Enzyme (SARS-CoV-2 3CL Pro; [5]): 1077 +/− 35
- Saliva (Saliva; [6]): 1515 +/− 40

Molecule: Dabcyl-KTSAVLQSGFRKME-EDANS [Commercial substrate, reference compound]
- Enzymatic activity, Slope, HCoV-229E (HCoV-229E 3CL protease; Table 4: substrate 5 uM): 493 RFU/min
- % Enz activity, HCoV-229E (HCoV-229E 3CL protease): 26%
- cross reactivity SARS-CoV-2 versus HCoV-229E protease (HCoV-229E 3CL protease): greater activity towards SARS-CoV-2 than HCoV-229E protease
- Saliva (Saliva; [6]): 2309 +/− 64
- Enzymatic activity, Slope, HRV (HRV 3C protease; [7]): 87 RFU/min
- % Enz activity, HRV (HRV 3C protease): 1%

Molecule: Dabcyl-LEALFQGP[Asp-(EDANS) SQ [Amide] ({Dabcyl′}-LEALFQGPD(EDANS)SQ-NH2; SMILES CC(C)C[C@H](NC(=O)c1ccc(/N=N/c2ccc(N(C)C)cc2)cc1)C(=O)N[C@@H](CCC(=O)O)C(=O)N[C@@H](C)C(=O)N[C@@H](CC(C)C)C(=O)N[C@@H](Cc1ccccc1)C(=O)N[C@@H](CCC(N)=O)C(=O)NCC(=O)N1CCC[C@H]1C(=O)N[C@@H](CC(=O)NCCNc1cccc2c(S(=O)(=O)O)cccc12)C(=O)N[C@@H](CO)C(=O)N[C@@H](CCC(N)=O)C(N)=O) [Biosyn#7]
- Enzymatic activity, Slope, HCoV-229E (HCoV-229E 3CL protease; Table 4: substrate 5 uM): 45 RFU/min
- % Enz activity, HCoV-229E (HCoV-229E 3CL protease): 0%
- Enzymatic activity, Slope, SARS-CoV-2 (SARS-CoV-2 3CL Pro; Table 4: substrate 5 uM): 43 RFU/min
- % Enz activity, SARS-CoV-2 (SARS-CoV-2 3CL Pro): 0%
- Enzymatic activity, Slope, HRV (HRV 3C protease; [7]): 1041 RFU/min
- % Enz activity, HRV (HRV 3C protease): 100%
- specificity for HRV (HRV 3C protease; substrate 5 uM, enzyme 150 ng/reaction): specific for HRV

Molecule: Dabcyl-TSAVLQSGF-EDANS ({Dabcyl′}-TSAVLQSGF-{EDANS}; SMILES CC(C)C[C@H](NC(=O)[C@@H](NC(=O)[C@H](C)NC(=O)[C@H](CO)NC(=O)[C@@H](NC(=O)c1ccc(/N=N/c2ccc(N(C)C)cc2)cc1)[C@@H](C)O)C(C)C)C(=O)N[C@@H](CCC(N)=O)C(=O)N[C@@H](CO)C(=O)NCC(=O)N[C@@H](Cc1ccccc1)C(=O)NCCNc1cccc2c(S(=O)(=O)O)cccc12) [Substrate#2]
- Enzyme (SARS-CoV-2 3CL Pro; [5]): 449 +/− 36
- Saliva (Saliva; [6]): 187 +/− 7

Molecule: Dabcyl-TSAVLQSGFRK-EDANS [Biosyn #1]
- Enzymatic activity, Slope, HCoV-229E (HCoV-229E 3CL protease; Table 4: substrate 5 uM): 856 RFU/min
- % Enz activity, HCoV-229E (HCoV-229E 3CL protease): 95%
- cross reactivity SARS-CoV-2 versus HCoV-229E protease (HCoV-229E 3CL protease): Cross reactivity was detected
- Saliva (Saliva; [6]): 1123 +/− 35
- Enzymatic activity, Slope, HRV (HRV 3C protease; [7]): −12 RFU/min
- % Enz activity, HRV (HRV 3C protease): −1* %

Molecule: Dabcyl-TSAVLQSGFYK-EDANS ({Dabcyl′}-TSAVLQSGFYK-{EDANS}; SMILES CC(C)C[C@H](NC(=O)[C@@H](NC(=O)[C@H](C)NC(=O)[C@H](CO)NC(=O)[C@@H](NC(=O)c1ccc(/N=N/c2ccc(N(C)C)cc2)cc1)[C@@H](C)O)C(C)C)C(=O)N[C@@H](CCC(N)=O)C(=O)N[C@@H](CO)C(=O)NCC(=O)N[C@@H](Cc1ccccc1)C(=O)N[C@@H](Cc1ccc(O)cc1)C(=O)N[C@@H](CCCCN)C(=O)NCCNc1cccc2c(S(=O)(=O)O)cccc12) [Substrate#5]
- Enzyme (SARS-CoV-2 3CL Pro; [5]): 527 +/− 7
- Saliva (Saliva; [6]): 4688 +/− 53

Molecule: Dabcyl-YGSTLQAGLRK-EDANS ({Dabcyl′}-YGSTLQAGLRK-{EDANS}; SMILES CC(C)C[C@H](NC(=O)CNC(=O)[C@H](C)NC(=O)[C@H](CCC(N)=O)NC(=O)[C@H](CC(C)C)NC(=O)[C@@H](NC(=O)[C@H](CO)NC(=O)CNC(=O)[C@H](Cc1ccc(O)cc1)NC(=O)c1ccc(/N=N/c2ccc(N(C)C)cc2)cc1)[C@@H](C)O)C(=O)N[C@@H](CCCNC(=N)N)C(=O)N[C@@H](CCCCN)C(=O)NCCNc1cccc2c(S(=O)(=O)O)cccc12) [Biosyn#6]
- Enzymatic activity, Slope, HCoV-229E (HCoV-229E 3CL protease; Table 4: substrate 5 uM): 213 RFU/min
- % Enz activity, HCoV-229E (HCoV-229E 3CL protease): 100%
- cross reactivity SARS-CoV-2 versus HCoV-229E protease (HCoV-229E 3CL protease): greater activity towards SARS-CoV-2 than HCoV-229E protease
- Enzymatic activity, Slope, SARS-CoV-2 (SARS-CoV-2 3CL Pro; Table 4: substrate 5 uM): 349 RFU/min
- % Enz activity, SARS-CoV-2 (SARS-CoV-2 3CL Pro): 190%
- Enzymatic activity, Slope, HRV (HRV 3C protease; [7]): 44 RFU/min
- % Enz activity, HRV (HRV 3C protease): −7* %

Molecule: [BHQ-1]-AVLQSGF-[Cys(AF488)]-RK-amide ({BHQ‑1}-AVLQSGFC(AF488)RK-NH2) [CBR #3]
- Enzyme (SARS-CoV-2 3CL Pro; [8]): 461 +/− 18
- Saliva (Saliva; [8]): 154 +/− 6

Molecule: [BHQ-1]-AVLQSGFRK-[Cys(AF488)]-amide ({BHQ‑1}-AVLQSGFRKC(AF488)-NH2) [CBR #4]
- Enzyme (SARS-CoV-2 3CL Pro; [8]): 657 +/− 6
- Saliva (Saliva; [8]): 726 +/− 25

Molecule: [BHQ-1]-TSAVLQSGF-[Cys(AF488)]-RK-amide ({BHQ‑1}-TSAVLQSGFC(AF488)RK-NH2; also: places amidation at residue 10) [CBR #2]
- Enzymatic activity, Slope, HCoV-229E (HCoV-229E 3CL protease; Table 6: substrate 1 μM): 1116 RFU/min
- Enzyme (SARS-CoV-2 3CL Pro; [8]): 6425 +/− 41
- Enzymatic activity, Slope, SARS-CoV-2 (SARS-CoV-2 3CL Pro; Table 6: substrate 1 μM): 3536 RFU/min
- signal to noise (SARS-CoV-2 3CL Pro; enzyme versus saliva, Table 3 conditions): 12.5
- Saliva (Saliva; [8]): 512 +/− 16
- Enzymatic activity, Slope, HRV (HRV 3C protease; Table 6: substrate 1 μM, enzyme 150 ng/reaction): 9 RFU/min

Molecule: [BHQ-1]-TSAVLQSGFRK-[Cys(AF488)]-amide [CBR #1]
- Saliva (Saliva; [8]): 1356 +/− 37

B1: Eglin C (protein)
chain: TEFGSELKSFPEVVGKTVDQAREYFTLHYPQYDVYFLPEGSPVTLDLRYNRVRVFYNPGTNVVNHVPHVG
- non-specific protease activity in saliva [1]: decreased
- non-specific protease activity [2]: decreased
- ranking among 29 inhibitors tested [2]: four best inhibitors
- inhibition of 3CL specific activity (3CL Protease [4]; buccal samples): non significant inhibition
- inhibition of 3CL specific activity (3CL Protease [3]): non significant inhibition
